# ChEMBL document CHEMBL1144578, “Chemotherapy of leishmaniasis Part VI: synthesis and bioevaluation of some novel terpenyl S,N- and N,N-acetals” (Eur J Med Chem, 2007)
# Calls of active or inactive are those of the source. The rule behind the calls is not given here.
# Legend:
# [1] = system: Leishmania donovani; assay: Inhibition of Leishmania donovani HOM/IN/80/DD8 in hamster at 50 mg/kg, ip after 7 days; format: functional; details: for inhibition in vivo at 50 mg/kg: HOM/IN/80/DD8, ip, 168 h, route intraperitoneal
# [2] = system: Leishmania donovani; assay: Inhibition of Leishmania donovani HOM/IN/80/DD8 in hamster at 50 mg/kg, po after 28 days; format: functional; details: HOM/IN/80/DD8, 672 h
# [3] = system: Leishmania donovani; assay: Inhibition of Leishmania donovani HOM/IN/80/DD8 in hamster at 50 mg/kg, po after 7 days; format: functional; details: HOM/IN/80/DD8, 168 h
# [4] = system: Leishmania donovani; assay: Inhibition of Leishmania donovani HOM/IN/80/DD8 in hamster at 50 mg/kg, ip after 28 days; format: functional; details: HOM/IN/80/DD8, ip, 672 h, route intraperitoneal
# [5] = system: Hamster; assay: Toxicity in hamster at 50 mg/kg; format: organism-based; design: dose 50 mg/kg; details: cricetinae, in vivo
# [6] = system: Leishmania donovani; assay: Inhibition of Leishmania donovani HOM/IN/80/DD8 in hamster at 12.5 mg/kg, po after 7 days; format: functional; details: HOM/IN/80/DD8, 168 h
# [7] = system: Leishmania donovani; assay: Inhibition of Leishmania donovani HOM/IN/80/DD8 in hamster at 12.5 mg/kg, po after 28 days; format: functional; details: HOM/IN/80/DD8, 672 h
smiles,measurement,setting,value
CCN(/C(=C\C(=O)/C=C/C1=C(C)CCCC1(C)C)SC)c1ccccc1,Activity,[1],inactive
CS/C(=C/C(=O)/C=C/C1=C(C)CCCC1(C)C)Nc1ccc(F)cc1,inhibition in vivo at 50 mg/kg,[1],31%
CC1=C(/C=C/C(=O)C=C(N2CCOCC2)N2CCOCC2)C(C)(C)CCC1,Activity,[1],inactive
COc1ccc(N/C(=C\C(=O)/C=C/C2=C(C)CCCC2(C)C)SC)cc1,inhibition in vivo at 50 mg/kg,[1],52%
CS/C(=C/C(=O)/C=C/C1=C(C)CCCC1(C)C)Nc1cccc(F)c1,inhibition in vivo at 50 mg/kg,[1],53%
CS/C(=C/C(=O)/C=C/C1=C(C)CCCC1(C)C)Nc1ccccc1,Activity,[1],inactive
CS/C(=C/C(=O)/C=C/C1=C(C)CCCC1(C)C)Nc1ccc(Cl)cc1,inhibition in vivo at 50 mg/kg,[1],18%
CC1=C(/C=C/C(=O)C=C2NCCN2)C(C)(C)CCC1,inhibition in vivo at 50 mg/kg,[1],30%
same,inhibition in vivo at 50 mg/kg,[2],71%
same,inhibition in vivo at 50 mg/kg,[3],40%
same,inhibition in vivo at 50 mg/kg,[4],65%
CC1=C(/C=C/C(=O)C=C(N2CCNCC2)N2CCNCC2)C(C)(C)CCC1,Activity,[5],Toxic
CCCCCCCCCCCCCCCCOP(=O)([O-])OCC[N+](C)(C)C [MILTEFOSINE],inhibition in vivo at 12.5 mg/kg,[6],94%
same,inhibition in vivo at 12.5 mg/kg,[7],69%
CS/C(=C/C(=O)/C=C/C1=C(C)CCCC1(C)C)NC1CCCCC1,inhibition in vivo at 50 mg/kg,[1],46%
